Experimental data from patent publication US20220380319A1 (Bial - R&D Investments, S.A., priority 2019, published 2022).
Converted amounts (≈) assume the structure as drawn.

How the values were obtained:
acid ceramidase = target: T1, acid ceramidase (Homo sapiens, UniProt Q13510); test: Acid ceramidase inhibition, biochemical fluorescent assay with cell lysates overexpressing acid ceramidase, substrate Rbm14-12; details: substrate Rbm14-12 6.3 μM, pH 4.5, 1 hr preincubation at RT
T1 construct: Cell lysates overexpressing acid ceramidase were used as the enzyme source; expressed in transfected cells
T1 sequence (Q13510 22-395): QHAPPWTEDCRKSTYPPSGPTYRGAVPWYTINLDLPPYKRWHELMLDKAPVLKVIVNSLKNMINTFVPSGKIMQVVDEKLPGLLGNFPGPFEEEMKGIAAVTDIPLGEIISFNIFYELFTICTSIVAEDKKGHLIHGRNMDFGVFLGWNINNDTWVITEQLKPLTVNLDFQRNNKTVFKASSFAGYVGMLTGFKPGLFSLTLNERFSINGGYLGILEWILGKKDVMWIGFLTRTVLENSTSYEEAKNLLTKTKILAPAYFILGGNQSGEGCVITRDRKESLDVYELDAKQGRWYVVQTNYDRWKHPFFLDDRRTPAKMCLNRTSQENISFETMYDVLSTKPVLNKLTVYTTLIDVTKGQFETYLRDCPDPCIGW
Description: The ability of exemplary compounds to inhibit acid ceramidase was measured.
Cell lysates overexpressing acid ceramidase were used as the enzyme source for compound potency determination in a biochemical fluorescent assay. Briefly, compounds were preincubated with 10 μg protein of cell lysates in a dose-response manner for 1 hr at RT in the assay buffer containing 25 mM NaAC and 100 mM NaCl, pH 4.5. The reaction was initiated by the addition of substrate Rbm14-12 at a final concentration of 6.3 μM. The reaction was run at RT for 1 hr before it was stopped by the addition of the stopping buffer containing 20% methanol (v/v), 1 mg/ml NaIO4, 0.1 M glycine, pH 10.6. The samples were incubated with the stopping buffer at RT for 1 hr to allow the fluorescent product to be formed. Finally, the plate was read with SpectraMax i3 plate reader (Molecular Devices) at ex360 nm and em446 nm. Data were collected and used to determine the IC50 values of compounds by curve fitting to the four-parameter inhibition equation.

[1] = Compound solubility in water

| SMILES | IC50 (acid ceramidase) | solubility [1] |
| --- | --- | --- |
| COc1ccc2c(c1)ncn2C(=O)NCCc1ccccc1 [Example 25a, 5-Methoxy-N-phenethyl-1H-benzo[d]imidazole-1-carboxamide] | < 0.2 µM | 2.6 µg/mL (≈ 8.8 µM) |
| COc1ccc2ncn(C(=O)NCCc3ccccc3)c2c1 [Example 25b, 6-methoxy-N-phenethyl-1H-benzo[d]imidazole-1-carboxamide] | < 0.2 µM | 15 µg/mL (≈ 50.8 µM) |
| O=C(NCCc1ccccc1)n1cnc2cc(C(F)(F)F)ccc21 [Example 26a, N-Phenethyl-5-(trifluoromethyl)-1H-benzo[d]imidazole-1-carboxamide] | < 0.2 µM | 0.5 µg/mL (≈ 1.5 µM) |
| O=C(NCCc1ccccc1)n1cnc2ccc(C(F)(F)F)cc21 [Example 26b, N-phenethyl-6-(trifluoromethyl)-1H-benzo[d]imidazole-1-carboxamide] | < 0.2 µM | 2.6 µg/mL (≈ 7.8 µM) |
| COc1cccc2c1ncn2C(=O)NCCc1ccccc1 [Example 27, 4-Methoxy-N-phenethyl-1H-benzo[d]imidazole-1-carboxamide] | < 0.2 µM | 7.8 µg/mL (≈ 26.4 µM) |
| COc1nc2cc(N3CCOCC3)ccc2n1C(=O)NCCc1ccccc1 [Example 29b, 2-methoxy-5-morpholino-N-phenethyl-1H-benzo[d]imidazole-1-carboxamide] | 0.2 to 1 µM | 3.6 µg/mL (≈ 9.46 µM) |
| COc1nc2cc(-c3cccnc3)ccc2n1C(=O)NCCc1ccccc1 [Example 30a, 2-Methoxy-N-phenethyl-5-(pyridin-3-yl)-1H-benzo[d]imidazole-1-carboxamide] | < 0.2 µM | 1.6 µg/mL (≈ 4.3 µM) |
| COc1nc2ccc(-c3cccnc3)cc2n1C(=O)NCCc1ccccc1 [Example 30b, 2-methoxy-N-phenethyl-6-(pyridin-3-yl)-1H-benzo[d]imidazole-1-carboxamide] | < 0.2 µM | 3.9 µg/mL (≈ 10.5 µM) |
| COc1nc2ccc(-c3cncnc3)cc2n1C(=O)NCCc1ccccc1 [Example 31a, 2-Methoxy-N-phenethyl-6-(pyrimidin-5-yl)-1H-benzo[d]imidazole-1-carboxamide] | < 0.2 µM | 7.1 µg/mL (≈ 19 µM) |
| COc1nc2cc(-c3cncnc3)ccc2n1C(=O)NCCc1ccccc1 [Example 31b, 2-methoxy-N-phenethyl-5-(pyrimidin-5-yl)-1H-benzo[d]imidazole-1-carboxamide] | < 0.2 µM | 8.6 µg/mL (≈ 23 µM) |
| Cn1c(=O)n(C(=O)NCCc2ccccc2)c2cc(-c3cncnc3)ccc21 [Example 32a, 3-Methyl-2-oxo-N-phenethyl-6-(pyrimidin-5-yl)-2,3-dihydro-1H-benzo[d]imidazole-1-carboxamide] | > 1 µM | 0.9 µg/mL (≈ 2.41 µM) |
| Cn1c(=O)n(C(=O)NCCc2ccccc2)c2ccc(-c3cncnc3)cc21 [Example 32b, 3-methyl-2-oxo-N-phenethyl-5-(pyrimidin-5-yl)-2,3-dihydro-1H-benzo[d]imidazole-1-carboxamide] | > 1 µM | 0.3 µg/mL (≈ 0.803 µM) |
| COc1nc2c(C3CCN(C)CC3)cccc2n1C(=O)NCCc1ccccc1 [Example 33, 2-Methoxy-4-(1-methylpiperidin-4-yl)-N-phenethyl-1H-benzo[d]imidazole-1-carboxamide] | 0.2 to 1 µM | 27 µg/mL (≈ 68.8 µM) |
| O=C(NCCc1ccccc1)n1c(OC2CC2)nc2ccccc21 [Example 34, 2-Cyclopropoxy-N-phenethyl-1H-benzo[d]imidazole-1-carboxamide] | < 0.2 µM | 0.5 µg/mL (≈ 1.56 µM) |
| CC(C)Oc1nc2ccccc2n1C(=O)NCCc1ccccc1 [Example 35, 2-iso-Propoxy-N-phenethyl-1H-benzo[d]imidazole-1-carboxamide] | < 0.2 µM | 0.7 µg/mL (≈ 2.16 µM) |
| CCOc1nc2ccccc2n1C(=O)NCCc1ccccc1 [Example 36, 2-Ethoxy-N-phenethyl-1H-benzo[d]imidazole-1-carboxamide] | < 0.2 µM | 8.4 µg/mL (≈ 27.2 µM) |
| O=C(NCCc1ccccc1)n1c(Oc2ccccc2)nc2ccccc21 [Example 37, N-Phenethyl-2-phenoxy-1H-benzo[d]imidazole-1-carboxamide] | < 0.2 µM | 0.2 µg/mL (≈ 0.56 µM) |
